pIC50: −log10 of the molar value.
Legend:
[1] = biological target: RON (Homo sapiens, UniProt Q04912); assay: RON inhibitory activity, TR-FRET kinase assay; type: biochemical; settings: RON protein, ULight-labeled Poly GT substrate
Description: To measure the RON inhibitory activity of the example compounds, the IC50 of the compounds was measured using time-resolved fluorescence energy transfer (TR-FRET).
Specifically, the compound was prepared at a concentration of 1 mM with 100% DMSO and serially diluted 10 times through 3-fold dilution. 2 μl of the serially diluted compound was added to a 96-well plate containing 48 μl of 1× kinase reaction buffer (50 mM HEPES (pH 7.4), 0.01% Tween-20, 5 mM DTT, 0.5 mM Na3VO4, 2 mM EGTA, 10 mM MgCl2).
The RON protein was diluted with a RON storage buffer (50 mM Tris-HCl (pH 7.5), 150 mM NaCl, 0.5 mM EDTA, 0.02% Triton X-100) to a concentration of 49.3 nM, and then diluted again with 1× kinase reaction buffer to be 0.4 nM. As a substrate cocktail, a RON-specific substrate mixture (40 μM ULight-labeled Poly GT, 100 nM ATP) was prepared at a concentration twice the final reaction concentration.
(§1) After that, a 384-well plate was prepared, and 2.5 μl of the diluted example compound was added to each of the experimental group wells, and 2.5 μl of a 4% DMSO solution was dispensed into high control wells and low control wells.
(§2) Afterward, 2.5 μl of 0.4 nM RON was dispensed into the high control wells and the experimental group wells, and 2.5 μl of 1× kinase reaction buffer was added to the low control wells, and after centrifugation at 1000 RPM for 40 seconds at room temperature, the mixtures were incubated at room temperature for 20 to 30 minutes. Then, 5 μl of the substrate cocktail (2×) was dispensed into all wells, and after centrifugation at 1000 RPM for 40 seconds at room temperature, the mixtures were incubated at room temperature for 60 minutes. Afterward, 5 μl of 30 mM EDTA was added to all wells to terminate the reaction, and the mixtures were incubated again at room temperature for 5 minutes. Thereafter, 5 μl of 4× phosphotyrosine antibodies (Perkin Elmer) containing europium was added to all wells and incubated at room temperature for 60 minutes. After the incubation, the 384-well-plate was read with a Vison plate reader. At this time, the excitation wavelength was 340 nm, and the emission wavelengths were 620 nm and 665 nm. The IC50 value of each example compound was derived using the GraphPd Prism7 program.

[2] = biological target: cMET (Homo sapiens, UniProt P08581); assay: MET (cMET) enzyme inhibitory activity, TR-FRET kinase assay; type: biochemical; settings: cMET protein, TK peptide substrate
Description: In addition, to measure cMET enzyme activity inhibition, an experiment was performed by the same method as the experiment for measuring the RON enzyme activity inhibition.
Specifically, the compound was prepared at a concentration of 1 mM with 100% DMSO and serially diluted 10 times through 3-fold dilution. 2 μl of the serially diluted compound was added to a 96-well plate containing 48 μl 1× kinase reaction buffer (50 mM HEPES (pH 7.4), 0.05% BSA, 0.005% Tween-20, 1 mM DTT, 0.5 mM MnCl2, 20 mM MgCl2).
The cMET protein was diluted in a cMET storage buffer (50 mM Tris-HCl (pH 7.5), 150 mM NaCl, 0.05% Brij35, 1 mM DTT, 10% glycerol) to a concentration of 263 nM, and then diluted again with 1× kinase reaction buffer to 2 nM. As a substrate cocktail, a MET-specific substrate mixture (5 μM TK peptide, 10 mM ATP) was prepared at a concentration twice the final reaction concentration.
as §1
as §2, with “μl of 2 nM cMET” for “μl of 0.4 nM RON”, “2 nM cMET was dispensed” for “0.4 nM RON was dispensed”, “was dispensed to the high” for “was dispensed into the high”, “μl of 90 mM EDTA” for “μl of 30 mM EDTA”

Sequence of RON (Q04912 25-1400, species assumed): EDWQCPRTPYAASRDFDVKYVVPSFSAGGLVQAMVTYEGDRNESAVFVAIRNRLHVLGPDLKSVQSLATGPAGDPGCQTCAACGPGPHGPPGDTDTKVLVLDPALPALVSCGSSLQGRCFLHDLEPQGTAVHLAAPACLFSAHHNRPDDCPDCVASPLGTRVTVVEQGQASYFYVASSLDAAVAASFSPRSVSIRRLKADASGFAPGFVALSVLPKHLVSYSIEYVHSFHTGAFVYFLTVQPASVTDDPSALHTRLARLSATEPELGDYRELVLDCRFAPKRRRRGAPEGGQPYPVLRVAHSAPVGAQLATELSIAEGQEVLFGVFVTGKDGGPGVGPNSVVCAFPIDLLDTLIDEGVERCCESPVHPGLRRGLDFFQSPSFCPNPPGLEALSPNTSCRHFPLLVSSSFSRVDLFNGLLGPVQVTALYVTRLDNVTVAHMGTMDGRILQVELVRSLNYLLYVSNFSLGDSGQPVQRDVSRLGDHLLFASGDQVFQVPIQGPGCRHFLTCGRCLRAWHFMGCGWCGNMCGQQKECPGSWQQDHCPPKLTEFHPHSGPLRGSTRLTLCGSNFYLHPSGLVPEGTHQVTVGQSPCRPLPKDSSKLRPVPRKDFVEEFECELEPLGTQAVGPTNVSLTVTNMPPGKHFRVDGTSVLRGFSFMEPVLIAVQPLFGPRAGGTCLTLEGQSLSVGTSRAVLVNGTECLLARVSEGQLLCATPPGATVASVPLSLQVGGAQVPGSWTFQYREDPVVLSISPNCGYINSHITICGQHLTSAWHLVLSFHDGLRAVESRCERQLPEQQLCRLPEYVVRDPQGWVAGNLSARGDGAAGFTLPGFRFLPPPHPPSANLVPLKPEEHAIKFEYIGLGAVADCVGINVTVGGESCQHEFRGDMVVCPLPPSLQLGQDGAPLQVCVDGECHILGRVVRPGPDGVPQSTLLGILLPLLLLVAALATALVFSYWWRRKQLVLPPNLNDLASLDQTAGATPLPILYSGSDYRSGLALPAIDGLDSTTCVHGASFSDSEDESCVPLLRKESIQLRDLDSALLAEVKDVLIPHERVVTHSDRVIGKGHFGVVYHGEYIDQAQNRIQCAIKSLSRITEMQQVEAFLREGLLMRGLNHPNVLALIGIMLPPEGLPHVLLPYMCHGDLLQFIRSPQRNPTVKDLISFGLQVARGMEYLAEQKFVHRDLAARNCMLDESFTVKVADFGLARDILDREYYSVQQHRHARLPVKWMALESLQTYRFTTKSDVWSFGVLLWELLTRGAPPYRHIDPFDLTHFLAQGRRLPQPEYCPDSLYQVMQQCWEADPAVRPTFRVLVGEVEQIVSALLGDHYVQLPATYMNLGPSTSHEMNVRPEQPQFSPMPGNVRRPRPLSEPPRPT
Sequence of cMET (P08581 25-1390): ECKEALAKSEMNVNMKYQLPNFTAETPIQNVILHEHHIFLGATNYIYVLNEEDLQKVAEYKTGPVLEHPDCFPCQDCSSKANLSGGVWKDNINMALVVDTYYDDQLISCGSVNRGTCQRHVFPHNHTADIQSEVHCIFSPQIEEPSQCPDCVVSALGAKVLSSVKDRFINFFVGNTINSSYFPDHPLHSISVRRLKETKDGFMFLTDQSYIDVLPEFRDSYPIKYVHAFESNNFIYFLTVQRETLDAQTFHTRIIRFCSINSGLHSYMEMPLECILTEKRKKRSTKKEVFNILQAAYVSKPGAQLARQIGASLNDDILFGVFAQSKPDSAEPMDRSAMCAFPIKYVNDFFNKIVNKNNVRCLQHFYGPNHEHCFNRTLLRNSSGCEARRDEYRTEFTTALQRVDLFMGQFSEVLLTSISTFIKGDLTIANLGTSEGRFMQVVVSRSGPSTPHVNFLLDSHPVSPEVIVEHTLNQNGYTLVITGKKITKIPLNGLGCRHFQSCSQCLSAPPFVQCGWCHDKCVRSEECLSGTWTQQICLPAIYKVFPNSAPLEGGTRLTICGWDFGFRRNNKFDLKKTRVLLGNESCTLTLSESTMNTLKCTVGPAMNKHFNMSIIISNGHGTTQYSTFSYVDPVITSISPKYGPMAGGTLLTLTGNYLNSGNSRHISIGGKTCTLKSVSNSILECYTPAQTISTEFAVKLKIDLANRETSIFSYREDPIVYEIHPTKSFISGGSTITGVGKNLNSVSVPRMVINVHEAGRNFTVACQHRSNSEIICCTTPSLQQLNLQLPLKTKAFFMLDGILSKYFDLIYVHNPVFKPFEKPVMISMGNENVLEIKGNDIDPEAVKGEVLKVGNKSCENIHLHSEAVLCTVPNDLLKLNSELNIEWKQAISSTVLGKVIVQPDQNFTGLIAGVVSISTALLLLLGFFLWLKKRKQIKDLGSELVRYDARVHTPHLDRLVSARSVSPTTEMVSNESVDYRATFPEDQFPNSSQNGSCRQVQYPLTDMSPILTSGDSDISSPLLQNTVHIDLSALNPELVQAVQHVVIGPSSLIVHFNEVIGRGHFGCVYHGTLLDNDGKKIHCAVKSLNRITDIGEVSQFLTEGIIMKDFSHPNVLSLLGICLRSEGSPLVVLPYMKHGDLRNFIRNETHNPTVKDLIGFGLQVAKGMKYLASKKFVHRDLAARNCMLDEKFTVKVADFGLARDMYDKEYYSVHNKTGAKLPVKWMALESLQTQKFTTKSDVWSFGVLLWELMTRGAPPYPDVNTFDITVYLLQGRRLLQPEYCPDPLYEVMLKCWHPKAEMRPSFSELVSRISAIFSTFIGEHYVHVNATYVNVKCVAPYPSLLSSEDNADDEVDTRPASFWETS

Nc1nccc(Oc2c(F)cc(NC(=O)c3cnn(-c4ncccn4)c3C(F)(F)F)cc2F)c1C1CC1 [Example 41, N-(4-((2-amino-3-cyclopropylpyridin-4-yl)oxy)-3,5-difluorophenyl)-1-(pyrimidin-2-yl)-5-(trifluoromethyl)-1H-pyrazole-4-carboxamide]
pIC50 [1]: > 7.30 | pIC50 [2]: 5.30 to 6.30

CC(C)c1c(Oc2c(F)cc(NC(=O)c3cnn(-c4ncccc4F)c3C(F)(F)F)cc2F)ccnc1N [Example 46, N-(4-((2-amino-3-isopropylpyridin-4-yl)oxy)-3,5-difluorophenyl)-1-(3-fluoropyridin-2-yl)-5-(trifluoromethyl)-1H-pyrazole-4-carboxamide]
pIC50 [1]: > 7.30 | pIC50 [2]: 5.30 to 6.30

N#Cc1c(Oc2c(F)cc(NC(=O)c3cnn(-c4cccnn4)c3C(F)(F)F)cc2F)ccnc1N [Example 36, N-(4-((2-amino-3-cyanopyridin-4-yl)oxy)-3,5-difluorophenyl)-1-(pyridazin-3-yl)-5-(trifluoromethyl)-1H-pyrazole-4-carboxamide]
pIC50 [1]: 6.30 to 7.30 | pIC50 [2]: 5.30 to 6.30

CC(C)c1c(Oc2c(F)cc(NC(=O)c3cnn(-c4ccccc4)c3C(F)(F)F)cc2F)ccnc1N [Example 43, N-(4-((2-amino-3-isopropylpyridin-4-yl)oxy)-3,5-difluorophenyl)-1-phenyl-5-(trifluoromethyl)-1H-pyrazole-4-carboxamide]
pIC50 [1]: > 7.30 | pIC50 [2]: 5.30 to 6.30

Nc1nccc(Oc2c(F)cc(NC(=O)c3cnn(-c4ncccc4F)c3C(F)(F)F)cc2F)c1C1CCOCC1 [Example 20, N-(4-((2-amino-3-(tetrahydro-2H-pyran-4-yl)pyridin-4-yl)oxy)-3,5-difluorophenyl)-1-(3-fluoropyridin-2-yl)-5-(trifluoromethyl)-1H-pyrazole-4-carboxamide]
pIC50 [1]: > 7.30 | pIC50 [2]: 6.30 to 7.30

Nc1nccc(Oc2c(F)cc(NC(=O)c3cnn(-c4ncccn4)c3C(F)(F)F)cc2F)c1CN1CCOCC1 [Example 48, N-(4-((2-amino-3-(morpholinomethyl)pyridin-4-yl)oxy)-3,5-difluorophenyl)-1-(pyrimidin-2-yl)-5-(trifluoromethyl)-1H-pyrazole-4-carboxamide]
pIC50 [1]: > 7.30 | pIC50 [2]: < 5.30

Nc1nccc(Oc2c(F)cc(NC(=O)c3cnn(-c4ccccn4)c3C(F)(F)F)cc2F)c1C1CC1 [Example 40, N-(4-((2-amino-3-cyclopropylpyridin-4-yl)oxy)-3,5-difluorophenyl)-1-(pyridin-2-yl)-5-(trifluoromethyl)-1H-pyrazole-4-carboxamide]
pIC50 [1]: > 7.30 | pIC50 [2]: 5.30 to 6.30

CCOCC(=O)N1CCC(n2ncc(C(=O)Nc3cc(F)c(Oc4ccnc(N)c4Cl)c(F)c3)c2C(F)(F)F)CC1 [Example 60, N-(4-((2-amino-3-chloropyridin-4-yl)oxy)-3,5-difluorophenyl)-1-(1-(2-ethoxyacetyl)piperidin-4-yl)-5-(trifluoromethyl)-1H-pyrazole-4-carboxamide]
pIC50 [1]: 5.30 to 6.30 | pIC50 [2]: 5.30 to 6.30

Nc1nccc(Oc2c(F)cc(NC(=O)c3cnn(-c4ncccc4Cl)c3C(F)(F)F)cc2F)c1I [Example 16, N-(4-((2-amino-3-iodopyridin-4-yl)oxy)-3,5-difluorophenyl)-1-(3-chloropyridin-2-yl)-5-(trifluoromethyl)-1H-pyrazole-4-carboxamide]
pIC50 [1]: > 7.30 | pIC50 [2]: 6.30 to 7.30

C#Cc1c(Oc2c(F)cc(NC(=O)c3cnn(-c4ncccn4)c3C(F)(F)F)cc2F)ccnc1N [Example 28, N-(4-((2-amino-3-ethynylpyridin-4-yl)oxy)-3,5-difluorophenyl)-1-(pyrimidin-2-yl)-5-(trifluoromethyl)-1H-pyrazole-4-carboxamide]
pIC50 [1]: > 7.30 | pIC50 [2]: 5.30 to 6.30

Nc1nccc(Oc2c(F)cc(NC(=O)c3cnn(-c4ccccn4)c3C(F)(F)F)cc2F)c1C1CCOCC1 [Example 24, N-(4-((2-amino-3-(tetrahydro-2H-pyran-4-yl)pyridin-4-yl)oxy)-3,5-difluorophenyl)-1-(pyridin-2-yl)-5-(trifluoromethyl)-1H-pyrazole-4-carboxamide]
pIC50 [1]: > 7.30 | pIC50 [2]: 5.30 to 6.30

Nc1ncnc(Oc2c(F)cc(NC(=O)c3cnn(-c4ncccc4Cl)c3C(F)(F)F)cc2F)c1Cl [Example 11, N-(4-((6-amino-5-chloropyrimidin-4-yl)oxy)-3,5-difluorophenyl)-1-(3-chloropyridin-2-yl)-5-(trifluoromethyl)-1H-pyrazole-4-carboxamide]
pIC50 [1]: > 7.30 | pIC50 [2]: 5.30 to 6.30

Nc1nccc(Oc2c(F)cc(NC(=O)c3cnn(-c4ccccc4)c3C(F)(F)F)cc2F)c1CN1CCOCC1 [Example 50, N-(4-((2-amino-3-(morpholinomethyl)pyridin-4-yl)oxy)-3,5-difluorophenyl)-1-phenyl-5-(trifluoromethyl)-1H-pyrazole-4-carboxamide]
pIC50 [1]: > 7.30 | pIC50 [2]: 5.30 to 6.30

Nc1nccc(Oc2cc(F)c(NC(=O)c3cnn(-c4ccccc4)c3C(F)(F)F)cc2F)c1Cl [Example 6, N-(4-((2-amino-3-chloropyridin-4-yl)oxy)-2,5-difluorophenyl)-1-phenyl-5-(trifluoromethyl)-1H-pyrazole-4-carboxamide]
pIC50 [1]: 6.30 to 7.30 | pIC50 [2]: < 5.30

Nc1nccc(Oc2c(F)cc(NC(=O)c3cnn(-c4ncccc4F)c3C(F)(F)F)cc2F)c1C#CCO [Example 53, N-(4-((2-amino-3-(3-hydroxyprop-1-yn-1-yl)pyridin-4-yl)oxy)-3,5-difluorophenyl)-1-(3-fluoropyridin-2-yl)-5-(trifluoromethyl)-1H-pyrazole-4-carboxamide]
pIC50 [1]: > 7.30 | pIC50 [2]: 6.30 to 7.30

Nc1nccc(Oc2c(F)cc(NC(=O)c3cnn(-c4ccccc4)c3C(F)(F)F)cc2F)c1C#CCO [Example 51, N-(4-((2-amino-3-(3-hydroxyprop-1-yn-1-yl)pyridin-4-yl)oxy)-3,5-difluorophenyl)-1-phenyl-5-(trifluoromethyl)-1H-pyrazole-4-carboxamide]
pIC50 [1]: > 7.30 | pIC50 [2]: 5.30 to 6.30

C#Cc1c(Oc2c(F)cc(NC(=O)c3cnn(-c4cccnn4)c3C(F)(F)F)cc2F)ccnc1N [Example 30, N-(4-((2-amino-3-ethynylpyridin-4-yl)oxy)-3,5-difluorophenyl)-1-(pyridazin-3-yl)-5-(trifluoromethyl)-1H-pyrazole-4-carboxamide]
pIC50 [1]: > 7.30 | pIC50 [2]: 5.30 to 6.30

CC(O)C#Cc1c(Oc2c(F)cc(NC(=O)c3cnn(-c4ncccc4F)c3C(F)(F)F)cc2F)ccnc1N (centres unmarked) [Example 57, N-(4-((2-amino-3-(3-hydroxybut-1-yn-1-yl)pyridin-4-yl)oxy)-3,5-difluorophenyl)-1-(3-fluoropyridin-2-yl)-5-(trifluoromethyl)-1H-pyrazole-4-carboxamide]
pIC50 [1]: > 7.30 | pIC50 [2]: 6.30 to 7.30

Nc1nccc(Oc2c(F)cc(NC(=O)c3cnn(-c4ncccn4)c3C(F)(F)F)cc2F)c1C1CCOCC1 [Example 22, N-(4-((2-amino-3-(tetrahydro-2H-pyran-4-yl)pyridin-4-yl)oxy)-3,5-difluorophenyl)-1-(pyrimidin-2-yl)-5-(trifluoromethyl)-1H-pyrazole-4-carboxamide]
pIC50 [1]: > 7.30 | pIC50 [2]: 5.30 to 6.30

From patent US20260217673A1, “NOVEL COMPOUND AS RON INHIBITOR” (LG CHEM, LTD., priority 2022, published 2026)
